{"source": "patent US20130177991A1", "about": "“A[…] EMISSION LUMINOGEN-BASED URINARY PROTEIN DETECTION DEVICE FOR […] HEALTH” (NANO AND ADVANCED MATERIALS INSTITUTE LIMITED, priority 2012, published 2013)", "key": {"[1]": {"target": "T1, HSA (Homo sapiens, UniProt P02768)", "T1 construct": "purchased Sigma-Aldrich", "T1 sequence (P02768 25-609)": "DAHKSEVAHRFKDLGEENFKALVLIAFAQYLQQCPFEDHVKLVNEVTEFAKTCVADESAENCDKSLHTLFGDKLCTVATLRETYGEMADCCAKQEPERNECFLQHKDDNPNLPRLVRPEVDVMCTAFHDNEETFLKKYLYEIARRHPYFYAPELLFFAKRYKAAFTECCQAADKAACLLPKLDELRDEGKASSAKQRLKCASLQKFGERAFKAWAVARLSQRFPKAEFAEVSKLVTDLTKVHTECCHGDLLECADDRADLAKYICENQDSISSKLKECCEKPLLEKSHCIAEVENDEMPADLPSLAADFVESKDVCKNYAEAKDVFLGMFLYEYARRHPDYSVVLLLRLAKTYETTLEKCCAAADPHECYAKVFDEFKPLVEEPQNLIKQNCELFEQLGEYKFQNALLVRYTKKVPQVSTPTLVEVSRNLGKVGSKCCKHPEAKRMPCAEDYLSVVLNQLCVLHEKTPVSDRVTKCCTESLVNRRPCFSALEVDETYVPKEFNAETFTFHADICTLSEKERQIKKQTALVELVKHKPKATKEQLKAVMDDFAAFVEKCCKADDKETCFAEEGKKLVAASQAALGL", "assay": "Fluorescence turn-on assay of HSA in PBS buffer", "format": "binding", "description": "FIG. 2: (A) Fluorescent (FL) spectra of compound 1, SATPE in phosphate buffered saline (PBS) buffer containing different concentrations of HSA; (B) Change in the FL intensity at 475 nm with HSA concentration; Io=FL intensity in the absence of HSA. Inset: linear region of the binding isotherm of SATPE to HSA. [SATPE]=5 μM; λex=350 nm.\n(§1) In another embodiment, Compound 1 is AIE-active as it emits faintly in PBS buffer but gives strong light upon aggregate formation. Its solution in PBS buffer is weakly luminescent at 390 nm in the absence of HSA (FIG. 2). […] The higher the HSA content, the stronger is the light emission. The detection limit can be squeezed to as low as 1 nM. In order to examine the feasibility of protein assay in body fluids, artificial urine is utilized as medium in the protein assay."}, "[2]": {"target": "T1, HSA", "assay": "Selectivity of fluorescence response to HSA against other proteins and DNAs", "format": "binding", "conditions": "FIG. 3B, [SATPE]=5 μM, [protein]=100 μg/mL", "description": "FIG. 3: (A) Binding isotherm of HSA to SATPE in artificial urine and PBS buffer; (B) Dependence of the FL intensity of SATPE at 475 nm on different proteins in artificial urine and PBS buffer. [SATPE]=5 μM; [protein]=100 μg/mL; λex=350 nm.\nas §1"}}, "data": [{"smiles": "O=S(=O)([O-])CCCOc1ccc(C(=C(c2ccccc2)c2ccc(OCCCS(=O)(=O)[O-])cc2)c2ccccc2)cc1.[Na+].[Na+]", "note": "[Compound 1]", "values": [{"measurement": "detection limit for HSA", "setting": "[1]; emission at 475 nm", "result": 1, "unit": "nM"}, {"measurement": "light emission upon addition of HSA", "setting": "[1]; weakly luminescent at 390 nm in the absence of HSA", "result": "emit intensely at 475 nm"}, {"measurement": "response to other human proteins and DNAs", "setting": "[2]", "result": "no significant response"}, {"measurement": "selectivity to HSA", "setting": "[2]; artificial urine and PBS buffer", "result": "excellent selectivity to HSA"}]}]}
